From ChEMBL document CHEMBL1201862, “PubChem BioAssay data set” (2004)
The source made the active and inactive calls.

Experiments:
[1] = target: Glucose-6-phosphate 1-dehydrogenase (Homo sapiens, UniProt P11413); assay: human G6PD enzyme inhibitors, dose response, selectivity assay for P. falciparum G6PD inhibitor project, biochemical, fluorescence (AID 504792); format: functional
[2] = target: T1, Calpain-2 catalytic subunit (Sus scrofa, UniProt P43367); assay: pig calpain II inhibitor potency, dose response, biochemical, fluorogenic peptide substrate (AID 1420); format: functional
T1 sequence (P43367 whole entry): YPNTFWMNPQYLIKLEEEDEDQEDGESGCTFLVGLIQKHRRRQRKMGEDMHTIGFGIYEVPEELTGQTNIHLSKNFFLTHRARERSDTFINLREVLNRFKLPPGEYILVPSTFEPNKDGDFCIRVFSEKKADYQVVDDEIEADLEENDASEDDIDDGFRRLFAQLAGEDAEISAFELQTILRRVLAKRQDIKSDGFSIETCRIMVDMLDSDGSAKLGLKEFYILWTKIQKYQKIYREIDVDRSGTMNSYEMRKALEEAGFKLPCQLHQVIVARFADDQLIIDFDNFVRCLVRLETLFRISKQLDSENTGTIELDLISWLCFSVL

Mu-type opioid receptor = Mu-type opioid receptor (Homo sapiens, UniProt P35372); format: functional, cell-based;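 note: U2OS cells with beta-arrestin recruitment to OPRM1 by beta-gal complementation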
[3] = target: 5-hydroxytryptamine receptor 2A (Mus musculus, UniProt P35363); format: functional, cell-based;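 note: CHO-K1 cells with tagged receptor and beta-arrestin; agonist potency measured as compound-induced activation of the receptor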
[4] = target: Voltage-dependent T-type calcium channel subunit alpha-1H (Homo sapiens, UniProt O95180); format: functional;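 note: channel activity triggered by adding a high calcium stimulation buffer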
[5] = target: Induced myeloid leukemia cell differentiation protein Mcl-1 (Homo sapiens, UniProt Q07820); format: functional
Cytochrome P450 2C19 = Cytochrome P450 2C19 (Homo sapiens, UniProt P33261); assay: Cytochrome panel assay with activity outcomes. Panel member name: p450-cyp2c19 Compounds with AC50 equal or less than 10 uM are considered active; format: functional; conditions: read-out: AC50
Cytochrome P450 2D6 = Cytochrome P450 2D6 (Homo sapiens, UniProt P10635);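 note: CYP2D6 member of a cytochrome P450 panel assay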
Cytochrome P450 2C9 = Cytochrome P450 2C9 (Homo sapiens, UniProt P11712)
[6] = target: T2, Corticotropin-releasing factor receptor 2/Corticotropin-releasing factor-binding protein (Homo sapiens, UniProt P24387+Q13324); assay: Dose Response confirmation of uHTS hits for small molecule antagonists of the CRF-binding protein and CRF-R2 receptor complex.; format: functional; conditions: read-out: IC50_Mean
T2 sequence (Q13324 whole entry): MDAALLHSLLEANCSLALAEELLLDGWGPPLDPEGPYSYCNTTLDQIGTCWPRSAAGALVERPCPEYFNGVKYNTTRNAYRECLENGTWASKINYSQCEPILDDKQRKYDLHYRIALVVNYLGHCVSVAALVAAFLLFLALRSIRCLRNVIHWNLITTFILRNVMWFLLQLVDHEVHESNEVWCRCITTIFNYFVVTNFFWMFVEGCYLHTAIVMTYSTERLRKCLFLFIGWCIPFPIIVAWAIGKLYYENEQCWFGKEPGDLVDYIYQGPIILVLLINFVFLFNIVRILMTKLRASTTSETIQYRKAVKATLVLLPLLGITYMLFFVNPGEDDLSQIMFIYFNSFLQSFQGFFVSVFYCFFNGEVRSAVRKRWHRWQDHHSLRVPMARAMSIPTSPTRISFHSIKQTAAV
T2 sequence (P24387 whole entry): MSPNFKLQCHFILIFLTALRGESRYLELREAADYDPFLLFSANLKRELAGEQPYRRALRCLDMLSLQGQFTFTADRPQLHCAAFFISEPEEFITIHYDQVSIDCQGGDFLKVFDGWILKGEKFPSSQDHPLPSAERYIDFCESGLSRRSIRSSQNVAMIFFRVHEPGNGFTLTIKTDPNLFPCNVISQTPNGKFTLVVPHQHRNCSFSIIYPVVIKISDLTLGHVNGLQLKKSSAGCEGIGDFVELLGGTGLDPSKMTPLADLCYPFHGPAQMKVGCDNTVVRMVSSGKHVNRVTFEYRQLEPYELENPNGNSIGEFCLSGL

[7] = target: T2, Corticotropin-releasing factor receptor 2/Corticotropin-releasing factor-binding protein; assay: activators of CRF receptor 2 with binding protein – uHTS hits, confirmation (AID 602473); format: functional; conditions: read-out: EC50_Mean
Cytochrome P450 1A2 = target: T3, Cytochrome P450 1A2 (Homo sapiens, UniProt P05177);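 note: PubChem cytochrome P450 panel assay, CYP1A2 panel member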
T3 sequence (P05177 whole entry): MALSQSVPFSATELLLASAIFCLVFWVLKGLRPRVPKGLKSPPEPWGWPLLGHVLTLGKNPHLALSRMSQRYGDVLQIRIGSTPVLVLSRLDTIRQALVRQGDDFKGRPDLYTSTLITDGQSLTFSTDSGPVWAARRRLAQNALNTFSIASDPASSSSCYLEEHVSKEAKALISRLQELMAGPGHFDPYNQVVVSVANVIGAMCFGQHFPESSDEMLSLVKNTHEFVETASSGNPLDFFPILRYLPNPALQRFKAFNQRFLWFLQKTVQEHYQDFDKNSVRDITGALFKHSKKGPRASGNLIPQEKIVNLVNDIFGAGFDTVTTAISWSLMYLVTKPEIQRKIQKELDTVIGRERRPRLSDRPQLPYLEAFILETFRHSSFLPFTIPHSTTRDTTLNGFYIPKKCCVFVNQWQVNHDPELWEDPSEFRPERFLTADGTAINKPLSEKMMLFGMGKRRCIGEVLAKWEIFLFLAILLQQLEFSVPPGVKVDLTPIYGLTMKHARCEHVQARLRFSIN

Cytochrome P450 3A4 = Cytochrome P450 3A4 (Homo sapiens, UniProt P08684);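 note: CYP3A4 tested as one member of a cytochrome P450 panel screen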
[8] = target: T4, Short transient receptor potential channel 4 (Mus musculus, UniProt Q9QUQ5); assay: mouse TRPC4 channel inhibitors, dose response, cell-based, HEK293 TRPC4/mu-opioid, Fluo-4 calcium (AID 434942); format: functional;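 note: potency of inhibitors blocking the TRPC4 calcium response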
T4 sequence (Q9QUQ5 whole entry): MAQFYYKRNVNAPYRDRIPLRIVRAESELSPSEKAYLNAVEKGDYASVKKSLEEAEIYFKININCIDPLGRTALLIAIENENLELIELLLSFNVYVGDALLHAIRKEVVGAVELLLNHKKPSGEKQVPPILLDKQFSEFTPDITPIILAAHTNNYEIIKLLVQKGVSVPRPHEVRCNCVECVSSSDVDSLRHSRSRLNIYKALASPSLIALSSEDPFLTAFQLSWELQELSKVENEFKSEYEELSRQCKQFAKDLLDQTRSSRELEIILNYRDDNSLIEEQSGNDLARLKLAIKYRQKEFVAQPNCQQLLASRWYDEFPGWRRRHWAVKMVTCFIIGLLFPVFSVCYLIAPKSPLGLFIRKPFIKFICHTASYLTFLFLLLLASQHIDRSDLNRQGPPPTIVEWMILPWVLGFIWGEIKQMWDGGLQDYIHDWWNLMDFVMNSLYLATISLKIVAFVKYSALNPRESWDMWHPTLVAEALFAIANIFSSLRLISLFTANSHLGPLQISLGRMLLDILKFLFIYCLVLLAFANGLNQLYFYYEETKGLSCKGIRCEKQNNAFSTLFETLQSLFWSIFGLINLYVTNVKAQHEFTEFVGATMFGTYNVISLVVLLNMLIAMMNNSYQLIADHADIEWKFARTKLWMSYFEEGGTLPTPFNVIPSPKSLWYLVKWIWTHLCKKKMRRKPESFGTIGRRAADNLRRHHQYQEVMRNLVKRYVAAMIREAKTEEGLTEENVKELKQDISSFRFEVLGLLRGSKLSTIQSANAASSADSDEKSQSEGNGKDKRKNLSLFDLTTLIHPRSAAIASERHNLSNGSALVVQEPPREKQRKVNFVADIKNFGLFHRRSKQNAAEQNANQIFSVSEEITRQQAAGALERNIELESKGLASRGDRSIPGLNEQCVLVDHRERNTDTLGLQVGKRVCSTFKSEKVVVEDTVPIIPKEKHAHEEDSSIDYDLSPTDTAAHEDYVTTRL

[9] = target: SWI/SNF-related matrix-associated actin-dependent regulator of chromatin subfamily A member 2 (Homo sapiens, UniProt P51531); assay: Luminescence-based cell-based high throughput dose response assay to identify activators of the function of SWI/SNF related, matrix associated, actin dependent regulator of chromatin, subfamily a, member 2 (SMARCA2, BRM).; format: functional
[10] = Counterscreen for activators of the function of SWI/SNF related, matrix associated, actin dependent regulator of chromatin, subfamily a, member 2 (SMARCA2, BRM): Luminescence-based cell-based high throughput dose response assay to identify non-selective compounds using the VP16 reporter assay.; format: functional
[11] = target: T5, Heat shock factor protein 1 (Mus musculus, UniProt P38532); assay: inhibition of MG132-induced HSE-luciferase signal, confirmation, cell-based, NIH3T3, luminescence, dose retest (AID 2382); format: functional;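 note: NIH3T3 fibroblasts with HSF1-driven luciferase reporter stressed by proteasome inhibitor MG132; luminescence from HSF1-driven luciferase expression after 8 hours of MG132 stress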
T5 sequence (P38532 whole entry): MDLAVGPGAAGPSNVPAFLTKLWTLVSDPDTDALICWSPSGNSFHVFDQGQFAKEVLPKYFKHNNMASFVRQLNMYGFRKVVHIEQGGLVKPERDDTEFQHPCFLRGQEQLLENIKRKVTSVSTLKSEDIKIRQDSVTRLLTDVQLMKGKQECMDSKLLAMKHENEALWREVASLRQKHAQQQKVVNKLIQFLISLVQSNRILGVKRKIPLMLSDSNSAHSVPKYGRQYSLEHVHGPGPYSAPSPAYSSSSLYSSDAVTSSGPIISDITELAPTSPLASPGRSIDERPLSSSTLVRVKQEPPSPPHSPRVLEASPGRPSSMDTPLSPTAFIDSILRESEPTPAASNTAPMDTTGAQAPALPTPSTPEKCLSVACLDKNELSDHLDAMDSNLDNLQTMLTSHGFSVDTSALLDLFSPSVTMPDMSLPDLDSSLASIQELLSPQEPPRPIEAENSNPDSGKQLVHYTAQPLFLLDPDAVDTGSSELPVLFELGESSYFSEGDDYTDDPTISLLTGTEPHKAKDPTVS

Prothrombin = Prothrombin (Homo sapiens, UniProt P00734); assay: Thrombin 1536 HTS Dose Response Confirmation. [Related pubchem assays: 1046 (Thrombin 1536 HTS; hits were confirmed in this assay)]; format: functional
[12] = growth suppression of PTEN-null colon cells, dose response, cell-based, HCT116 PTEN knockout (AID 1047); format: functional;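 note: HCT116 colon tumor cells with PTEN knocked out; cells exposed to compound for 60 hours before readout; potency for loss of cell viability measured by luminescence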
[13] = growth suppression of beta-catenin-knockout colon cells, dose response, cell-based, HCT116, human colon tumor (AID 1045); format: functional;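 note: HCT116 colon tumor cells with beta catenin knocked out; cells exposed to compound for 60 hours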
cells [14] = format: functional, cell-based
cells [15] = format: functional, cell-based; remark: listed apart in the source

Mu-type opioid receptor, sequence (P35372 whole entry): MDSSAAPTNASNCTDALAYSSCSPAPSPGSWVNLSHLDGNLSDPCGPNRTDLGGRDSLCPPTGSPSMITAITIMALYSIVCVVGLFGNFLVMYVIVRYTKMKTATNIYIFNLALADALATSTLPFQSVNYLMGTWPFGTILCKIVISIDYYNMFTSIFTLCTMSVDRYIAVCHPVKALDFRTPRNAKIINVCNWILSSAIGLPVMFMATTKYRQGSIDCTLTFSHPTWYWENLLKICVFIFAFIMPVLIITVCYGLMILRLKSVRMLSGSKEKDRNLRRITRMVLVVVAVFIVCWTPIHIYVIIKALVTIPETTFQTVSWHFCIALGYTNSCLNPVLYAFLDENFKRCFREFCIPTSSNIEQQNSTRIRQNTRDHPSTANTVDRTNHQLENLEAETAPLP
Voltage-dependent T-type calcium channel subunit alpha-1H, sequence (O95180 whole entry): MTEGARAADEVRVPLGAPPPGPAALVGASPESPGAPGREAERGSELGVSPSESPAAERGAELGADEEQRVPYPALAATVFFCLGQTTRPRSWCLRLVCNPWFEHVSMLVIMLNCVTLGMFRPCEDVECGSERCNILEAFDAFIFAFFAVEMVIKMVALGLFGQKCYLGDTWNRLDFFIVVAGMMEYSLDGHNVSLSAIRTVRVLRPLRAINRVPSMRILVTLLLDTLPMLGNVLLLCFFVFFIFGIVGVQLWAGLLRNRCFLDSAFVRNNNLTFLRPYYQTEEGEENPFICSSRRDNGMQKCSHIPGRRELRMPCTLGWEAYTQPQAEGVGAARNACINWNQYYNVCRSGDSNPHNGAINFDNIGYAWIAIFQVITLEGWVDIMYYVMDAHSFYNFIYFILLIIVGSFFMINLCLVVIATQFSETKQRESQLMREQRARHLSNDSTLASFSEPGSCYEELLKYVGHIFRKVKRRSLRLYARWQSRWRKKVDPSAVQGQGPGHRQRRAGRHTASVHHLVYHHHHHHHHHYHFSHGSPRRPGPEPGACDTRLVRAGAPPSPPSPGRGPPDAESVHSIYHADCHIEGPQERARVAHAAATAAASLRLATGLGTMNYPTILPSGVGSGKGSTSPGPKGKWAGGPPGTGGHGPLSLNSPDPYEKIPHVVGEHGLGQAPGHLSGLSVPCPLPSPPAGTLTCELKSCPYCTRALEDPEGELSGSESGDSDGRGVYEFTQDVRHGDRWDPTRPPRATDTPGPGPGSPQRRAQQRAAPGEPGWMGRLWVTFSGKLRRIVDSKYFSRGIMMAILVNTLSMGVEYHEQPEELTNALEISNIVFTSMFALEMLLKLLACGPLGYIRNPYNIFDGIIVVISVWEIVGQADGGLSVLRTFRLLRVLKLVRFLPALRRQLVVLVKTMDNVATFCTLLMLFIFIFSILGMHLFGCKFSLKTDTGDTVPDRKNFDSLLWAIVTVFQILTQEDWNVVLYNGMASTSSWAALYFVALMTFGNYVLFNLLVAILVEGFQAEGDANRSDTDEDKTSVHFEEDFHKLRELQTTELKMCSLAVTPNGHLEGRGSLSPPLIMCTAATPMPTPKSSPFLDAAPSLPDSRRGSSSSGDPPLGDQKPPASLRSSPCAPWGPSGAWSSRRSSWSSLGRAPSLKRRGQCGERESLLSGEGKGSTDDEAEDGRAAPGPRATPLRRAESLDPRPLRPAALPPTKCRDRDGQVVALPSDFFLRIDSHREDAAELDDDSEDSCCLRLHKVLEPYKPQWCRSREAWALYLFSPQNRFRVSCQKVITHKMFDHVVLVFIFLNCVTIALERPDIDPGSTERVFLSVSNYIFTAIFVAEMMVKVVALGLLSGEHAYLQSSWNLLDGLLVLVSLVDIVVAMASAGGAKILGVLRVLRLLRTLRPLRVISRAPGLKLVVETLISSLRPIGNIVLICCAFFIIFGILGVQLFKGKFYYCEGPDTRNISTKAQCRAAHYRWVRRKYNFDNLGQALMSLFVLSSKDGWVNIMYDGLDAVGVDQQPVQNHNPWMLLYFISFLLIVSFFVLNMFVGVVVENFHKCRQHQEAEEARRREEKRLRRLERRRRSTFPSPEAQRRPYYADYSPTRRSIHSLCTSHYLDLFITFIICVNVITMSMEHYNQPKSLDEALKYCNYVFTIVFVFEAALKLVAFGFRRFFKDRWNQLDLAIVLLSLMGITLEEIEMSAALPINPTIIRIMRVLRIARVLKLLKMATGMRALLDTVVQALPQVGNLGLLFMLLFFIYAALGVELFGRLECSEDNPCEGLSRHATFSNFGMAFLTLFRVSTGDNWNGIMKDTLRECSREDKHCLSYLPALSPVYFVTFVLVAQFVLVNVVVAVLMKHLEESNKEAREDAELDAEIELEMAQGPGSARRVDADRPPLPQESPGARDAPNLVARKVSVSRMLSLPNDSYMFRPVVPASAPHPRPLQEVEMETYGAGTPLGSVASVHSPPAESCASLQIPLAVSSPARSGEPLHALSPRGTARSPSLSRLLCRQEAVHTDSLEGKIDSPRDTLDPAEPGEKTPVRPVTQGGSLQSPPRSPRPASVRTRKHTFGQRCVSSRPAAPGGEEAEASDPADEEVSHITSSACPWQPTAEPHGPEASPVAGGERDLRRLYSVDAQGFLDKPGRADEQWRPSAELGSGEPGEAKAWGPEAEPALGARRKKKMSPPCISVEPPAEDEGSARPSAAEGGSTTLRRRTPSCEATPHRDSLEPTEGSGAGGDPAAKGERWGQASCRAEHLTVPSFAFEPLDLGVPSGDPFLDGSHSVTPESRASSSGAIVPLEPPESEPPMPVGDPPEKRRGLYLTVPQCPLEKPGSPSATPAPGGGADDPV
5-hydroxytryptamine receptor 2A, sequence (P35363 whole entry): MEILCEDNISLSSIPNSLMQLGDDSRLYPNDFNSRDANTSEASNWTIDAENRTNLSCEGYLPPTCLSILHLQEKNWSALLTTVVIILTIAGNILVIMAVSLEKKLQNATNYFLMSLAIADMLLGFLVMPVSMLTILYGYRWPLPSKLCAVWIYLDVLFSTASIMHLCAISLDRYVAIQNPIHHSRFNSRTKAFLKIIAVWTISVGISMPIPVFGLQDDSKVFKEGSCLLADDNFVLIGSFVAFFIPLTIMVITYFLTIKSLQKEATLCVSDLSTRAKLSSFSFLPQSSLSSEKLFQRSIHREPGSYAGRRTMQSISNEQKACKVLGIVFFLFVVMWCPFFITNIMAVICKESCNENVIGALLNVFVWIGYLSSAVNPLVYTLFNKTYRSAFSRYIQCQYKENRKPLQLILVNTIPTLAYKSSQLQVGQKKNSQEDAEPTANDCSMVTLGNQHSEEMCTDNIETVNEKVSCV
Glucose-6-phosphate 1-dehydrogenase, sequence (P11413 whole entry): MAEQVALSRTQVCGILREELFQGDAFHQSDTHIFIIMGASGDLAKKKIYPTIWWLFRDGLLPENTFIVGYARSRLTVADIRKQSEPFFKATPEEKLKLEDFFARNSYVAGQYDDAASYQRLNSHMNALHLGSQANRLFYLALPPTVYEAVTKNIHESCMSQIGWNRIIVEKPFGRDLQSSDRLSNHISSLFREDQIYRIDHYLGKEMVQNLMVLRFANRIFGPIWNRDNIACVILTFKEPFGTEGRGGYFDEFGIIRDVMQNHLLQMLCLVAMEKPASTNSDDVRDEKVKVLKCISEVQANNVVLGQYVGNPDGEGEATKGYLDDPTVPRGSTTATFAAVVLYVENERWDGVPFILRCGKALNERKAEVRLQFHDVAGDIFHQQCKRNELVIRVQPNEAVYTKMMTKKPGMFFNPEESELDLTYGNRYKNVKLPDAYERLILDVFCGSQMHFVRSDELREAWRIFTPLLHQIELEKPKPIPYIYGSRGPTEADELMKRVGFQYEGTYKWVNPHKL
Cytochrome P450 3A4, sequence (P08684 whole entry): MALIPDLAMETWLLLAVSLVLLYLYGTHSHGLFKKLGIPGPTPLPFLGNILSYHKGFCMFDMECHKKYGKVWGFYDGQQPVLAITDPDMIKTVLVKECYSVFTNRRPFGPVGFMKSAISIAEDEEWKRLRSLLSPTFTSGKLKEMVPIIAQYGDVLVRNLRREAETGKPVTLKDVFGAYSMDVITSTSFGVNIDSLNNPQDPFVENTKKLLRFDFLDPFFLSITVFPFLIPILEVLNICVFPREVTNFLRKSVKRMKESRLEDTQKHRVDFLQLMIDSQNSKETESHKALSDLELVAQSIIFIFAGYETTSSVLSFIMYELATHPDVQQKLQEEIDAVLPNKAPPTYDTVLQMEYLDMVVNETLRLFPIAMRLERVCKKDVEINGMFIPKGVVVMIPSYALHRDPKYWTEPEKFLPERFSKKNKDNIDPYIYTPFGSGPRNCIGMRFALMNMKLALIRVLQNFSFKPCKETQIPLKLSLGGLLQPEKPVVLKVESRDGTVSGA
Cytochrome P450 2C9, sequence (P11712 whole entry): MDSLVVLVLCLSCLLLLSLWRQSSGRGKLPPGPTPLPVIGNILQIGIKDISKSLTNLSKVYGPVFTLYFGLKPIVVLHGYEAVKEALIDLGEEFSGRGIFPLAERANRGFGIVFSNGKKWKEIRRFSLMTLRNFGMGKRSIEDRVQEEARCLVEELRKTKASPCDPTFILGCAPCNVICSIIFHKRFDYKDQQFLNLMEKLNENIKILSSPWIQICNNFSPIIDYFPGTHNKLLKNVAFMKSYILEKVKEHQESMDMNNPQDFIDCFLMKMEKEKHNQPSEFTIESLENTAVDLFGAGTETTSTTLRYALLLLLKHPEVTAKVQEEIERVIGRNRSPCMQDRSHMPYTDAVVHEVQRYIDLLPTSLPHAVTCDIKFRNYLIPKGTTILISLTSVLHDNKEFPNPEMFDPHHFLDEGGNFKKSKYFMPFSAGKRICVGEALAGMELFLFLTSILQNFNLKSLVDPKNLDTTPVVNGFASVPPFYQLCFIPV

CCn1c(SCc2nc3scc(-c4ccccc4)c3c(=O)[nH]2)nnc1-c1cccs1
IC50 [1]: > 80 µM (inactive)

Cc1ccc(N2CCN(C3=NC(=O)/C(=C\c4cccs4)S3)CC2)cc1
IC50 [2]: 19.3 µM (not active)

O=S(=O)(c1ccc(OCC(O)CN2CCN(c3ccccc3O)CC2)cc1)N1CCOCC1 (centres undefined)
EC50 (Mu-type opioid receptor): 92.5 µM (inactive) | EC50 [3]: 76.1 µM (inactive)

COc1ccc(-c2nnc(N3CCCCC3)c3ccccc23)cc1
EC50 [4]: 11.3 µM (active)

O=S(=O)(c1ccc(OCC(O)CN2CCN(c3ccccc3Cl)CC2)cc1)N1CCOCC1 (centres undefined)
EC50 (Mu-type opioid receptor): 92.5 µM (inactive) | EC50 [3]: 25.4 µM (inactive)

O=C(Nc1ccc(Cl)cc1)N1CCc2[nH]c3ccccc3c2C1
IC50 [5]: 2.32 µM (not active) | EC50 [4]: 0.802 µM (active) | AC50 (Cytochrome P450 2C19): 2 µM (inconclusive) | AC50 (Cytochrome P450 2D6): 22.4 µM (inconclusive) | AC50 (Cytochrome P450 2C9): 3.98 µM (inconclusive)

CC1CCC2=NN(C(=O)c3ccco3)C(O)(C(F)(F)F)C2C1 (centres undefined)
IC50 [6]: > 47.1 µM (inactive) | EC50 [7]: > 53 µM (inactive)

CCC(C(=O)Nc1cccc(C(F)(F)F)c1)c1ccccc1 (centres undefined)
EC50 [4]: 2.89 µM (active) | AC50 (Cytochrome P450 1A2): 2.51 µM (inconclusive) | AC50 (Cytochrome P450 3A4): 14.1 µM (inconclusive)

O=C1c2ccccc2C(=O)N1CCc1csc(-c2ccc(F)cc2)n1
IC50 [2]: > 50 µM (not active)

COCCn1c(SCc2ccccc2F)nc2ccccc2c1=O
IC50 [2]: 9.21 µM (not active) | EC50 [8]: 1.88 µM (active)

C[C@H](NC(=O)Nc1ccc2c(c1)OCCO2)C(=O)O
IC50 [6]: > 47.1 µM (inactive) | EC50 [7]: > 53 µM (inactive)

O=C(CN1C(=O)C2CC=CCC2C1=O)Nc1nnc(SCc2ccc(Cl)cc2)s1 (centres undefined)
EC50 [4]: 5.35 µM (active)

Cc1ccc(-c2noc(CSc3nnnn3C3CCCCC3)n2)cc1
EC50 [4]: 1.95 µM (active)

COc1ccc(CNc2nc3c(c(=O)n(Cc4ccc(Br)cc4)c(=O)n3C)n2C)cc1
IC50 [2]: 2.3 µM (active)

Nc1nc(CN2CCN(Cc3ccccc3)CC2)nc(Nc2ccc3c(c2)OCCO3)n1
EC50 [9]: > 91.2 µM (inactive) | EC50 [10]: > 91.2 µM (inactive)

CC(=O)c1cccc(OCC(O)CN2CC=C(c3ccccc3)CC2)c1 (centres undefined)
EC50 (Mu-type opioid receptor): 92.5 µM (inactive) | EC50 [3]: 0.0752 µM (active)

Cc1ccc(CN(C(=O)c2ccccc2[N+](=O)[O-])C2CCS(=O)(=O)C2)o1 (centres undefined)
IC50 [6]: > 47.1 µM (inactive) | EC50 [7]: > 53 µM (inactive)

Cc1ccc(S(=O)(=O)N(C)C)cc1NC(=O)CSc1nc2cc(Cl)c[nH]c-2n1
IC50 [1]: > 80 µM (inactive)

O=C(Oc1oc(-c2ccco2)nc1/C=N/c1ccccc1)c1ccoc1
EC50 [11]: > 195 µM (not active) | IC50 (Prothrombin): 1.37 µM (active)

C=CCOc1ccc(/C=N/N2C(=O)C(CC(=O)Nc3ccc(F)cc3F)S/C2=N\C)cc1 (centres undefined)
EC50 [12]: 17.6 µM (active) | IC50 [2]: > 50 µM (not active) | EC50 [13]: 79.4 µM (active)

COc1cccc(/C=N\NC(=O)Cn2nnc3ccccc32)c1O
EC50 (cells [14]): 172 µM (active) | EC50 (cells [15]): > 350 µM (not active)

O=C(CCN1CCN(c2ccccc2)CC1)N/N=C/c1ccccc1OC(F)F
EC50 (Mu-type opioid receptor): 92.5 µM (inactive) | EC50 [3]: 25.4 µM (inactive)

CCOc1cccc(-c2c(C(=O)N/N=C/c3ccc(Br)cc3)nnn2-c2nonc2N)c1
EC50 (cells [14]): > 350 µM (not active) | EC50 (cells [15]): 160 µM (active)

Cc1ccc(S(=O)(=O)Oc2cccc(/C=N/Nc3ccc(C(=O)O)cc3)c2)cc1
IC50 [1]: 53.5 µM (inactive)
